Data reported in patent US20200283807A1, “METHOD AND CELL LINE FOR PRODUCTION OF PHYTOCANNABINOIDS AND PHYTOC[…] IN YEAST” (Hyasynth Biologicals Inc., priority 2017, published 2020).

Experiments:
[1] = tested on: S. cerevisiae; assay: Growth of S. cerevisiae strain HB37 in the presence of hexanoic acid (A600 of culture); format: cell-based, Saccharomyces cerevisiae; details: HB37-HA, 0.5 mM hexanoic acid
Experimental: (§1) Yeast cultures were grown in overnight cultures with selective media to provide starter cultures. The resulting starter cultures were then used to inoculate triplicate 50 ml cultures to an optical density at having an absorption at 600 nm (“A600”) of 0.1.
(§2) In the presence of 0.5 mM hexanoic acid, HB13 and HB37 were grown for 96 hours with samples taken at the 24h, 36h, 48h, 60, 72h, 84h and 96h points. In the absence of hexanoic acid, HB13 and HB84 were grown and a single time point was taken at 72 hours. HB13 was used as a control in both experiments. The growth media are described above in relation to Tables 8 and 9.
FIGS. 13 to 15 each show the A600 values of the HB37 culture listed in Table 10 (dashed lines with triangle data points).

[2] = tested on: S. cerevisiae; assay: Effect of hexanoic acid on growth of S. cerevisiae strain HB13 (A600 of culture); format: cell-based, Saccharomyces cerevisiae; details: for growth (A600): HB13-HA, 0.5 mM hexanoic acid
Experimental: as §1
HB13 was cultured in YNB+2% glucose+1.6 g/L 4DO*+0.5 mM hexanoic acid. Hexanoic acid was added at 36 hours of culture. The hexanoic acid was added to separate culture samples at concentrations of 0, 0.5, 1.0 and 3.0 mM. Hexanoic acid is toxic to S. cerevisiae. […] The magnitude of the decrease in S. cerevisiae growth corresponds to the concentration of hexanoic acid in the growth media. The A600 value of culture suspensions quantifies the growth rate, which is shown at hexanoic acid concentrations of 0, 0.5, 1.0 and 3.0 mM in FIG. 12.
as §2

CCCCCC(=O)O [hexanoic acid]
growth (A600) ([1]; 24 h): 3.33
growth (A600) ([1]; 36 h): 3.43
growth (A600) ([1]; 48 h): 3.33
growth (A600) ([1]; 60 h): 3.53
growth (A600) ([1]; 72 h): 4.48
growth (A600) ([1]; 84 h): 4.13
growth (A600) ([1]; 96 h): 4.33
growth (A600) ([2]; 24 h): 5.33
growth (A600) ([2]; 36 h): 5.80
growth (A600) ([2]; 48 h): 4.67
growth (A600) ([2]; 60 h): 6.07
growth (A600) ([2]; 72 h): 8.96
growth (A600) ([2]; 84 h): 7.23
growth (A600) ([2]; 96 h): 8.28
effect of hexanoic acid supplementation on growth of S. cerevisiae (A600) ([2]; HB13, hexanoic acid added at 36 hours at 0, 0.5, 1.0 and 3.0 mM, FIG. 12): Decreased growth
